Data on ten compounds can be found in patent publication US5843988A, “Cyclopropachromencarboxylic acid derivatives” (Suntory Limited, priority 1995, dated 1998).

Where two headings read alike, the source gives them in different places.

The target of this assay is T1, rat mGluR1 (metabotropic glutamate receptor 1) (Rattus norvegicus, UniProt P23385).
T1 construct: expressed in transfected cells; host or cells: CHO (Chinese hamster ovary) cells
Description: mGluR1 antagonistic effect as assessed with reference to intracellular Ca2+ response in mGluR1 expressing CHO cells (Fura-2 fluorometry). The assay is classed as cell-based. The conditions noted are these: Intracellular Ca2+ release induced by 10 μM glutamic acid. An excerpt:
Evaluation Example 1. mGluR1 antagonistic effect as assessed with reference to intracellular Ca^2+ response in mGluR1 expressing CHO cells
Since mGluR1 (metabotropic glutamate receptor 1) induces release of Ca^2+ from intracellular Ca^2+ storage sites via the formation of inositol-1,4,5-triphosphate in the pathway of the intracellular signaling system, it is possible to evaluate the antagonistic activity of the compounds of the invention against mGluR1 with reference to intracellular Ca^2+ response in CHO cells in which recombinant rat mGluR1 gene is transfected.
The present inventors applied this evaluation system to assess the mGluR1 antagonistic activity of the compounds provided by this invention using CHO cells in which rat mGluR1 gene is expressed [S. Nakanishi et al.: Neuron, 8, 757 (1992)]. Intracellular Ca^2+ release induced by 10 μM glutamic acid in the presence of various concentrations of the compounds of the present invention added to culture medium was measured by fluorometry with Fura -2 [H. Sugino et al.: Brain Res., 322,127 (1984)]. The antagonistic effect against the induced intracellular Ca^2+ elevation was thus assessed by comparison with the control response in the absence of the test compounds.

The mark [1] stands for this setting: read-out: 50% inhibitory concentrations (IC50), bound stated.

T1 sequence (P23385 19-1199): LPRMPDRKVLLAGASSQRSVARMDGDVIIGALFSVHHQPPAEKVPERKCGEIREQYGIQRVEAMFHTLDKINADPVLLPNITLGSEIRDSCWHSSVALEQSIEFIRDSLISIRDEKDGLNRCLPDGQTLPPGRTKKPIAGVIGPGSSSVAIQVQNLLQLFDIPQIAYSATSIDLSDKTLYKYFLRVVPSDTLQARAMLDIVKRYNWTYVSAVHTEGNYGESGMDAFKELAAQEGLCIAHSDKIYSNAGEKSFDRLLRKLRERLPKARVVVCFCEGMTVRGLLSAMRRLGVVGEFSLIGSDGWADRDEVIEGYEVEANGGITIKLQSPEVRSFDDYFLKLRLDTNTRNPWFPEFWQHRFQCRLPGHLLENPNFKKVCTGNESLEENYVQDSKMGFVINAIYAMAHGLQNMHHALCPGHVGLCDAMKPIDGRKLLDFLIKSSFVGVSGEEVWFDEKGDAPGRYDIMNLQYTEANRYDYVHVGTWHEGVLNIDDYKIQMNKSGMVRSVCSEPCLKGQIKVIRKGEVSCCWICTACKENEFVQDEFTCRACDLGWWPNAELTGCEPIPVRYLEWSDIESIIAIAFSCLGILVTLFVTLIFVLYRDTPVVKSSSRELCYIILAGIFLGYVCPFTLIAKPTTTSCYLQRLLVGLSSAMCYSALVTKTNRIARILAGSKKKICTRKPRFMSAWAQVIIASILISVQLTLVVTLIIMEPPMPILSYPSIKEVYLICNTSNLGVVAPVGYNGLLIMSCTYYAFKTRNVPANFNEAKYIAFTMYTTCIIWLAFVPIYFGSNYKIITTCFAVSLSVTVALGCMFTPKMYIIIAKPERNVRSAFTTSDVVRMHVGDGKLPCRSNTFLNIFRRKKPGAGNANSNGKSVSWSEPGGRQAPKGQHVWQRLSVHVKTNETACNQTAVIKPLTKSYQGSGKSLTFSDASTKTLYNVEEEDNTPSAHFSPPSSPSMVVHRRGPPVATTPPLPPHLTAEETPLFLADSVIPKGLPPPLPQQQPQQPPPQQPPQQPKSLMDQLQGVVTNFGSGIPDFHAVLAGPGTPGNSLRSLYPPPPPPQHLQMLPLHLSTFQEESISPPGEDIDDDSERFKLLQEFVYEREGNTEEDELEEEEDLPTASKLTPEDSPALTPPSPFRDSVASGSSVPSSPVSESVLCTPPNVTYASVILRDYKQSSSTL

For `O=C(Nc1ccccc1)C12CC1C(=NO)c1ccccc1O2` (stereo not drawn) [Example 35, 1a-(N-phenyl)carbamoyl-1a, 7a-dihydro-7(1H)-hydroxyiminocyclopropa[b]chromen], the IC50 (Table 3, read-out: IC50) turned out to be 3 µM and the IC50 under setting [1] was at most 100 µM.

For `O=C(N1CCN(c2ccc(F)cc2)CC1)C12CC1C(=NO)c1ccccc1O2` (stereo not drawn) [Example 53, 1a-(1-(4-fluorophenyl)-piperazinyl)arbonyl-1a, 7a-dihydro-7(1H)-hydroxyiminocyclopropa[b]chromen], the IC50 is 100 µM (Table 3, read-out: IC50) and at most 100 µM under setting [1].

For `CC(N)(C(=O)O)c1ccc(C(=O)O)cc1` (stereo not drawn) [MCPG, reference compound], the IC50 (Table 3, read-out: IC50) is 700 µM.

In the case of `CN(Cc1ccccc1)C(=O)C12CC1C(=NO)c1ccccc1O2` (stereo not drawn) [Example 43, 1a-(N-benzyl-N-methyl)carbamoyl-1a, 7a-dihydro-7(1H)-hydroxyiminocyclopropa[b]chromen], the IC50 is, setting by setting: (Table 3, read-out: IC50) 20 µM; under setting [1], at most 100 µM. Regarding `CN(C(=O)C12CC1C(=NO)c1ccccc1O2)c1ccccc1` (stereo not drawn) [Example 36, 1a-(N-methyl-N-phenyl)carbamoyl-1a, 7a-dihydro-7(1H)-hydroxyiminocyclopropa[b]chromen], the IC50 by setting is: (Table 3, read-out: IC50) 10 µM; under setting [1], at most 100 µM. In the same order, the values of `CC(C)COC(=O)C12CC1C(=NO)c1ccccc1O2` (stereo not drawn) [Example 34] are 20 µM and at most 100 µM. For the compound `CN(C(=O)C12CC1C(=NO)c1ccccc1O2)c1ccc(Cl)cc1` (stereo not drawn) [Example 42, 1a-(N-4-chlorophenyl-N-methyl)-carbamoyl-1a, 7a-dihydro-7(1H)-hydroxyiminocyclopropa-[b]chromen], the IC50 is 100 µM (Table 3, read-out: IC50) and at most 100 µM under setting [1].

For the compound `N[C@H](C(=O)O)c1ccc(C(=O)O)cc1` [(S)-4CPG, reference compound], under “Table 3, read-out: IC50”, the IC50 amounted to 200 µM. Turning to `COc1ccc(N(C)C(=O)C23CC2C(=NO)c2ccccc2O3)cc1` (stereo not drawn) [Example 41, 1a-(N-4-methoxyphenyl-N-methyl)carbamoyl-1a, 7a-dihydro-7(1H)-hydroxyimino-cyclopropa[b]chromen], the IC50 by setting is: (Table 3, read-out: IC50) 100 µM; under setting [1], at most 100 µM. With `CCOC(=O)C12CC1C(=NO)c1ccccc1O2` (stereo not drawn) [Example 32, 1a-ethoxycarbonyl-1a, 7a-dihydro-7(1H)-hydro-xyiminocyclopropa [b]chromen], the IC50 was 23 µM (Table 3, read-out: IC50) and at most 100 µM under setting [1].
